{
  "source": "patent US20040234978A1",
  "about": "“Novel potential-dependent cation channel protein” (priority 2001, published 2004)",
  "system": "CAE9577",
  "assay": "Na current measurement in CAE9577 expressed oocytes",
  "format": "cell-based, human",
  "data": [
    {"smiles": "NC1=N[C@H](O)[C@H]2[C@H]3O[C@]4(O)O[C@@H]([C@@H](O)[C@@]2(N1)[C@@H]4O)[C@]3(O)CO", "note": "[TTX, Tetrodotoxin]", "values": [
      {"measurement": "inhibition of the inward Na current", "value": "partially inhibited"}
    ]}
  ]
}
